Test results published in ChEMBL document CHEMBL2010672, “Pyridyl aminothiazoles as potent Chk1 inhibitors: optimization of cellular activity” (Bioorg Med Chem Lett, 2012).

How the values were obtained:
[1] = target: Cyclin-dependent kinase 7 (Homo sapiens, UniProt P50613); experiment: Inhibition of CDK7
NCI-H1299 = experiment: Inhibition of DNA damage-induced cell cycle arrest in human H1299 cells assessed as progression into mitosis measuring mitosis specific-phosphorylation of nucleolin after 8 hrs by checkpoint escape assay; assay type: functional, cell-based; settings: NCI-H1299, 8 h
[2] = target: T1, Serine/threonine-protein kinase Chk1 (Homo sapiens, UniProt O14757); experiment: Inhibition of CHK1 by time resolved fluorescence assay
T1 sequence (O14757 whole entry): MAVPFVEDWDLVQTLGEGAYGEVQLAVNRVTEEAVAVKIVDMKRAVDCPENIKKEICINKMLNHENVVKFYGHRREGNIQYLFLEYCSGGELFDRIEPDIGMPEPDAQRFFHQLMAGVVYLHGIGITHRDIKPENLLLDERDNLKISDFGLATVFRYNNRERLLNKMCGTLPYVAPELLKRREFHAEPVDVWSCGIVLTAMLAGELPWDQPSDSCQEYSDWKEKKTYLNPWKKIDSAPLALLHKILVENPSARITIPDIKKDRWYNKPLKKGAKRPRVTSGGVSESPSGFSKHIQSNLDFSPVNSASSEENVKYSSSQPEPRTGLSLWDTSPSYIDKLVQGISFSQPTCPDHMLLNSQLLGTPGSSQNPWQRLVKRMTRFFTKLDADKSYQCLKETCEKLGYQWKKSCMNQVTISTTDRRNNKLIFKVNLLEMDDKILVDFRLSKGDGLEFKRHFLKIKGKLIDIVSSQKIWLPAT

Sequence of Cyclin-dependent kinase 7 (P50613 whole entry): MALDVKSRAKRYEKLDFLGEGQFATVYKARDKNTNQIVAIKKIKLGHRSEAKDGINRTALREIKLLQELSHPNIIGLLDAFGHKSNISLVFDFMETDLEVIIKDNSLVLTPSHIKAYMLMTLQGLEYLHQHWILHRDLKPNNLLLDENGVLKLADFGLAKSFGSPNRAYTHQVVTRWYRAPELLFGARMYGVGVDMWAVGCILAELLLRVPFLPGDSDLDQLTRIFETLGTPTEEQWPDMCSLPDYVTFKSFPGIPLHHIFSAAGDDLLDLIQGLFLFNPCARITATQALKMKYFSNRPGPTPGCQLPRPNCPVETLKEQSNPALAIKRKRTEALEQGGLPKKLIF

| SMILES | IC50 [1] [nM] | IC50 [2] [nM] | EC50 (NCI-H1299) [nM] |
| --- | --- | --- | --- |
| O=C(CN1CCN(c2ccnc(Nc3ncc(-c4cccnc4)s3)c2)CC1)N1CCOCC1 | 1760 | – | > 50000 |
| Cc1ccc(-c2cnc(Nc3cc(N4CCNCC4)ccn3)s2)cn1 | > 20000 | – | 1370 |
| c1cncc(-c2cncc(-c3cnc(Nc4cc(N5CCOCC5)ccn4)s3)c2)c1 | > 10000 | – | > 10000 |
| c1ncc(-c2cncc(-c3cnc(Nc4cc(N5CCOCC5)ccn4)s3)c2)cn1 | > 10000 | – | > 10000 |
| Cc1ccc(-c2cnc(Nc3cccc(N4CCNCC4)n3)s2)cn1 | 1000 | 38 | > 16700 |
| c1ncc(-c2cnc(Nc3cc(N4CCNCC4)ccn3)s2)cn1 | 11000 | 29 | 1530 |
| c1cn(-c2cncc(-c3cnc(Nc4cc(N5CCOCC5)ccn4)s3)c2)nn1 | > 10000 | 9 | 1390 |
| Cn1cc(-c2cncc(-c3cnc(Nc4cc(N5CCNCC5)ccn4)s3)c2)cn1 | > 2000 | 6 | 1330 |
| c1cncc(-c2cncc(-c3cnc(Nc4cc(N5CCNCC5)ccn4)s3)c2)c1 | > 10000 | 5 | 570 |
| O=C(O)c1cncc(-c2cnc(Nc3cc(N4CCNCC4)ccn3)s2)c1 | > 10000 | 16 | > 10000 |
| NC(=O)c1cncc(-c2cnc(Nc3cc(N4CCOCC4)ccn3)s2)c1 | > 3700 | 10 | > 10000 |
| Cc1ccc(NC(=O)c2cncc(-c3cnc(Nc4cc(N5CCOCC5)ccn4)s3)c2)s1 | > 10000 | 12 | 920 |
| CNC(=O)c1cncc(-c2cnc(Nc3cc(N4CCOCC4)ccn3)s2)c1 | > 10000 | 7 | 300 |
| NCCCCc1cncc(-c2cnc(Nc3cc(N4CCOCC4)ccn3)s2)c1 | > 10000 | 12 | – |
| NCCNC(=O)c1cncc(-c2cnc(Nc3ccccc3Cl)s2)c1 | > 10000 | 33 | > 10000 |
| O=C(NCCO)c1cncc(-c2cnc(Nc3cc(N4CCOCC4)ccn3)s2)c1 | > 10000 | 15 | > 10000 |
| CS(=O)(=O)N1CCN(c2ccnc(Nc3ncc(-c4cncc(C(=O)NCC(F)(F)F)c4)s3)c2)CC1 | 2100 | 1.7 | 106 |

The next compounds have a lower IC50 [1] than those just listed; values first:

| IC50 [1] [nM] | IC50 [2] [nM] | SMILES | EC50 (NCI-H1299) [nM] |
| --- | --- | --- | --- |
| 340 | – | NCCNC(=O)c1cncc(-c2cnc(Nc3cc(N4CCOCC4)ccn3)s2)c1 | 460 |
| 260 | – | c1cc(N2CCNCC2)cc(Nc2ncc(-c3cncc(-c4cn[nH]c4)c3)s2)n1 | 5530 |
| 170 | – | CS(=O)(=O)N1CCN(c2ccnc(Nc3ncc(-c4cncc(C(=O)NCCN)c4)s3)c2)CC1 | 500 |
| 210 | – | CC(=O)N1CCN(c2ccnc(Nc3ncc(-c4cncc(C(=O)NCCN)c4)s3)c2)CC1 | 1210 |
| 870 | 27 | Cc1ccc(-c2cnc(Nc3cccc(NCCCN)n3)s2)cn1 | > 16700 |
| 26 | 33 | c1ccc(-c2cnc(Nc3cccc(N4CCNCC4)n3)s2)cc1 | > 16700 |
| 410 | 160 | c1cc(Nc2ncc(-c3cncnc3)s2)nc(N2CCNCC2)c1 | – |
| 480 | 21 | Brc1cncc(-c2cnc(Nc3cc(N4CCNCC4)ccn3)s2)c1 | > 50000 |
| 940 | 16 | NCCNC(=O)c1cncc(-c2cnc(Nc3cc(Cl)ccn3)s2)c1 | 940 |
| 960 | 0.3 | NCCNC(=O)c1cncc(-c2cnc(Nc3ncccc3Cl)s2)c1 | 330 |
| 910 | 0.4 | Cc1cccnc1Nc1ncc(-c2cncc(C(=O)NCCN)c2)s1 | 430 |
| 160 | 8 | NCCNC(=O)c1cccc(-c2cnc(Nc3cc(N4CCC(F)(F)CC4)ccn3)s2)c1 | > 10000 |
| 705 | 1.6 | O=C(NCC(F)(F)F)c1cncc(-c2cnc(Nc3cc(N4CCOCC4)ccn3)s2)c1 | 198 |
| 350 | 0.07 | NCCNC(=O)c1cncc(-c2cnc(Nc3cc(N4CCC(F)CC4)ccn3)s2)c1 | 484 |
